Data taken from US20260184669A1, “LIPID COMPOUND AND COMPOSITION FOR DELIVERY OF ACTIVE SUBSTANCE” (KOREA RESEARCH INSTIUTE OF BIOSCIENCE AND BIOTECHNOLOGY, priority 2022, published 2026).
Read-outs that look alike come from different tables or passages of the source.

Key:
[1] = tested on: IL-6 mRNA level in HEK-293T cells
[2] = tested on: CCL3 mRNA level in HEK-293T cells
[3] = In vivo toxicity evaluation, serum biochemical analysis (AST, ALT, ALP, BUN, creatinine); details: serum of mice after injection of fLuc mRNA-LNP, FIG. 9
Description: Toxicity induced by fLuc mRNA-LNPs prepared using various ionizable lipids according to the method of Example 27 was evaluated through serum biochemical analysis following […]. injection into mice.
Specifically, 50-100 μL of serum was collected each mouse at 24 and 48 hours after intravenous injection using the retro-orbital bleeding method. The serum biochemical analysis was performed using Hitachi 7150 Chemistry Analyzer, measuring indicators of liver function—aspartate aminotransferase (AST), alanine aminotransferase (ALT), alkaline phosphatase (ALP)- and indicators of kidney function—blood urea nitrogen (BUN) and creatinine.

[4] = Stability of mRNA-LNPs according to storage temperature and duration; type: physicochemical; details: for Normalized EE % D-7 / PDI D-7 / Size (nm) D-7: day 7; for Normalized EE % D-30 / PDI D-30 / Size (nm) D-30: day 30
Description: Stability of fLuc mRNA-LNPs produced using various ionizable lipids according to the method of Example 27, was assessed by storing the LNPs at 4° C. and 25° C. At 1, 7, and 30 days post-manufacture, the size, PDI, and encapsulation efficiency (EE) of each mRNA-LNPs samples were measured using the methods described in Experimental Examples 2 and 3.

[5] = tested on: IL-1β mRNA level in HEK-293T cells
[6] = Size, polydispersity index and surface charge of mRNA-LNP (Malvern Zetasizer Nano ZS90); type: physicochemical; details: for PDI / size (nm) Number: mRNA-LNP made with the ionizable lipid at its optimal formulation (Table 2); for size (nm) Number: diluted with PBS to 1 μg/mL mRNA; for Zeta (mV): surface charge of mRNA-LNP made with the ionizable lipid at its optimal formulation (Table 2)
Procedure, shortened: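 Dynamic/electrophoretic light scattering of LNPs diluted in PBS to a final mRNA concentration of 1 μg/mL. Readouts were particle size, PDI and surface charge.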

female C57BL/6 mice = test: Protein expression efficiency of fLuc mRNA-LNPs after intramuscular injection (IVIS whole-body luminescence); type: in vivo; details: for Total flux 1 hour / Total flux 3 hours / Total flux 6 hours / Total flux 48 hours / Total flux 72 hours / Total flux: fLuc mRNA-LNP, intramuscular injection, luminescence at injection site, mice; for Total flux 1 hour: 1 hour after administration; for Total flux 3 hours: 3 hours after administration; for Total flux 6 hours: 6 hours after administration; for Total flux 48 hours: 48 hours after administration; for Total flux 72 hours: 72 hours after administration; for Total flux: after administration
Procedure, shortened: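 Female C57BL/6 mice (6-10 weeks, n≥4) got intramuscular fLuc mRNA-LNPs at 0.1-0.5 mg/kg mRNA. Injection-site luminescence was imaged under isoflurane at 1-72 h, 10 min after i.p. D-luciferin (200 μL, 15 mg/mL). Expression at 3 h was taken relative to MC3 or SM-102 LNPs.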

[7] = tested on: CCL2 mRNA level in HEK-293T cells
[8] = mRNA encapsulation efficiency (Quant-IT RiboGreen RNA assay); type: physicochemical; details: mRNA encapsulation efficiency of mRNA-LNP made with the ionizable lipid; average of two measurements
Procedure, shortened: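 LNP samples read with RiboGreen reagent in TE buffer with or without 2% Triton X-100 (37 °C, 10 min) to release encapsulated mRNA. Fluorescence at λex 480/λem 520 nm; EE % calculated from the two readings, averaged over two independent measurements.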

[9] = Apparent pKa of mRNA-LNP by TNS binding assay; type: physicochemical; details: apparent pKa of mRNA-LNP made with the ionizable lipid
Description: The apparent pKa of the mRNA-LNPs prepared according to Example 27 was determined by analysis using 6-(p-toluidino)-2-naphthalenesulfonic acid sodium salt (TNS; Sigma-Aldrich, USA).
However, as the pH decreases, the proportion of positively charged ionizable lipids increases, allowing electrostatic interactions with TNS. […] When the pH of the solution increases and the ionizable lipids become neutralized, TNS can no longer engage in electrostatic interactions. Consequently, TNS loses its lipophilic character, exits the hydrophobic domain, and its fluorescence is quenched. Based on this principle, the pKa of LNPs can be measured by plotting the change in TNS fluorescence intensity in response to variations in the surrounding pH as an S-shaped curve, and calculating the […] of the inflection point. […]
Specifically, a master buffer was prepared containing 10 mM sodium phosphate, 10 mM sodium borate, 10 mM sodium citrate, and 150 mM sodium chloride (NaCl). […] After gently mixing the contents of each well, the fluorescence intensity was measured using a multiplate reader (Cary Eclipse, Agilent Technologies, USA) at an excitation wavelength of λex 330 nm and an emission wavelength of λem 435 nm.

[10] = fLuc mRNA-LNP stored at 4° C., day 1
[11] = fLuc mRNA-LNP stored at 25° C., day 1

CCCCCCCCCCCOC(=O)CCCCCN(CCCCCCCC(=O)OC(CCCCCCCC)CCCCCCCC)CC(O)CCCCNC(=O)c1cc[nH]c1 (stereo not shown) [Compound 17, Heptadecan-9-yl 8-((2-hydroxy-6-(1H-pyrrole-3-carboxamido)hexyl)(6-oxo-6-(undecyloxy)hexyl)amino)octanoate]
IL-6 Average ([1]; human): 0.94 | CCL3 Average ([2]; human): 1.10 | ALP level compared to control groups (PBS and SM-102) [3]: similar | AST level compared to control groups (PBS and SM-102) [3]: lower | BUN level compared to control groups (PBS and SM-102) [3]: similar | Normalized EE % D-1 [4, 10]: 94.0% | PDI D-1 [4, 10]: 0.100 | Size (nm) D-1 [4, 10]: 151.2 nm | Normalized EE % D-7 ([4]; fLuc mRNA-LNP stored at 4° C.): 91.3% | PDI D-7 ([4]; fLuc mRNA-LNP stored at 4° C.): 0.098 | Size (nm) D-7 ([4]; fLuc mRNA-LNP stored at 4° C.): 133.8 nm | Normalized EE % D-30 ([4]; fLuc mRNA-LNP stored at 4° C.): 89.8% | PDI D-30 ([4]; fLuc mRNA-LNP stored at 4° C.): 0.081 | Size (nm) D-30 ([4]; fLuc mRNA-LNP stored at 4° C.): 130.7 nm | Normalized EE % D-1 [4, 11]: 94.0% | Size (nm) D-1 [4, 11]: 151.2 nm | Normalized EE % D-7 ([4]; fLuc mRNA-LNP stored at 25° C.): 90.2% | PDI D-7 ([4]; fLuc mRNA-LNP stored at 25° C.): 0.114 | Size (nm) D-7 ([4]; fLuc mRNA-LNP stored at 25° C.): 134.2 nm | Normalized EE % D-30 ([4]; fLuc mRNA-LNP stored at 25° C.): 88.6% | PDI D-30 ([4]; fLuc mRNA-LNP stored at 25° C.): 0.128 | Size (nm) D-30 ([4]; fLuc mRNA-LNP stored at 25° C.): 128.1 nm | IL-1β Average ([5]; human): 0.70 | PDI [6]: 0.100 | size (nm) Number [6]: 151 nm | Zeta (mV) [6]: −6.80 mV | protein expression compared to the control group (SM-102) (female C57BL/6 mice; 3 hours post intramuscular injection, in words): significantly higher protein expression | Total flux 1 hour (female C57BL/6 mice): 6.53E+07 | Total flux 3 hours (female C57BL/6 mice): 2.23E+08 | Total flux 6 hours (female C57BL/6 mice): 1.02E+08 | Total flux 48 hours (female C57BL/6 mice): 4.80E+06 | Total flux 72 hours (female C57BL/6 mice): 4.21E+06 | Total flux (female C57BL/6 mice): 1.00E+07 | Fold increase in total flux at 3 h, MC3 (female C57BL/6 mice; relative to control LNP formulated with MC3, 3 hours after intramuscular injection): 18.09 | Fold increase in total flux at 3 h, SM-102 (female C57BL/6 mice; relative to control LNP formulated with SM-102, 3 hours after intramuscular injection): 1.99 | CCL2 Average ([7]; human): 0.65 | EE (%) [8]: 94%

CCCCCCCCCCCOC(=O)CCCCCN(CCO)CCCCCCCC(=O)OC(CCCCCCCC)CCCCCCCC [SM-102, reference compound]
IL-6 Average [1]: 1.82 | CCL3 Average [2]: 2.41 | PKa [9]: 6.48 | IL-1β Average [5]: 1.14 | PDI [6]: 0.140 | size (nm) Number [6]: 101 nm | Zeta (mV) [6]: −2.99 mV | Total flux 1 hour (female C57BL/6 mice): 1.48E+07 | Total flux 3 hours (female C57BL/6 mice): 1.12E+08 | Total flux 6 hours (female C57BL/6 mice): 1.82E+08 | Total flux 48 hours (female C57BL/6 mice): 7.43E+06 | Total flux 72 hours (female C57BL/6 mice): 2.86E+06 | Total flux (female C57BL/6 mice): 2.27E+07 | CCL2 Average [7]: 0.83 | EE (%) [8]: 94%
